From US20250382565A1, “INTELLIGENT SUPERVISION SYSTEM AND METHOD FOR BACTERIAL CULTURE EQUIPMENT BASED ON BIG DATA” (Suzhou Foo-Chi Biomedical Technology Co., Ltd., priority 2024, published 2025) come the findings set out here.

The subject of the experiment is Staphylococcus aureus ATCC 29213. The experiment is described as follows: MIC of the antibiotic against the strain to be tested by E-test. It counts as cell-based. The note with it: ATCC29213, cefuroxime E-test strip, overnight culturing, CLSI standard operation. As to the method:
Test of the MIC of the antibiotic against the strain to be tested: The strain ATCC 29213 for test is incubated onto a culture medium plate, and a bacterial colony grows after 18 to 24 h for future use. Normal saline (a phosphate buffer solution, or the like) is prepared and is then separately put into turbidimeter tubes, each of which has a capacity of 9 mL, and sterilization treatment is carried out (at 121° C. for 15 to 30 min). A particular number of bacteria are added into the turbidimeter tubes to make bacterial suspensions, and the MacFarland turbidity is adjusted to 0.5 to 1 McFarland. According to a CLSI standard operation and use guidelines of E-test, a swab is dipped into each bacterial suspension, and is applied to a culture medium. After the swab is dried for 15 to 20 min, a cefuroxime E-test strip is applied to a surface of a bacterial moss for overnight culturing. A scale at an intersection of an edge of an inhibition zone and the strip is read. The scale is an MIC value of ATCC 29213 against the cefuroxime, which is 2 ug/mL.

`CO/N=C(\C(=O)N[C@@H]1C(=O)N2C(C(=O)O)=C(COC(N)=O)CS[C@H]12)c1ccco1` [cefuroxime]: the MIC amounted to 2 µg/mL.

By MIC is commonly meant the lowest concentration that inhibits growth of the organism.
